Measured values: ChEMBL document CHEMBL5678803, “Selective blockade of TRPA1 channel attenuates pathological pain without altering noxious cold sensation or body temperature regulation” (Pain, 2011)
The source made the active and inactive calls. No cut-off for these calls is given here.

What was measured:
[1] = target: Transient receptor potential cation channel subfamily M member 8 (Homo sapiens, UniProt Q7Z2W7); experiment: Antagonist activity at human TRPM8 expressed in HEK293F cells assessed as inhibition of menthol-induced TRPM8 channel activation by FLIPR-based Ca2+ assay relative to control; assay type: cell-based; settings: concentration not given here
[2] = target: T1, Transient receptor potential cation channel subfamily V member 2 (Rattus norvegicus, UniProt Q9WUD2); experiment: Antagonist activity at rat TRPV2 expressed in HEK293F cells assessed as inhibition of 2APB-induced increase in intracellular Ca2+ level by FLIPR-based Ca2+ assay; assay type: cell-based
T1 sequence (Q9WUD2 whole entry): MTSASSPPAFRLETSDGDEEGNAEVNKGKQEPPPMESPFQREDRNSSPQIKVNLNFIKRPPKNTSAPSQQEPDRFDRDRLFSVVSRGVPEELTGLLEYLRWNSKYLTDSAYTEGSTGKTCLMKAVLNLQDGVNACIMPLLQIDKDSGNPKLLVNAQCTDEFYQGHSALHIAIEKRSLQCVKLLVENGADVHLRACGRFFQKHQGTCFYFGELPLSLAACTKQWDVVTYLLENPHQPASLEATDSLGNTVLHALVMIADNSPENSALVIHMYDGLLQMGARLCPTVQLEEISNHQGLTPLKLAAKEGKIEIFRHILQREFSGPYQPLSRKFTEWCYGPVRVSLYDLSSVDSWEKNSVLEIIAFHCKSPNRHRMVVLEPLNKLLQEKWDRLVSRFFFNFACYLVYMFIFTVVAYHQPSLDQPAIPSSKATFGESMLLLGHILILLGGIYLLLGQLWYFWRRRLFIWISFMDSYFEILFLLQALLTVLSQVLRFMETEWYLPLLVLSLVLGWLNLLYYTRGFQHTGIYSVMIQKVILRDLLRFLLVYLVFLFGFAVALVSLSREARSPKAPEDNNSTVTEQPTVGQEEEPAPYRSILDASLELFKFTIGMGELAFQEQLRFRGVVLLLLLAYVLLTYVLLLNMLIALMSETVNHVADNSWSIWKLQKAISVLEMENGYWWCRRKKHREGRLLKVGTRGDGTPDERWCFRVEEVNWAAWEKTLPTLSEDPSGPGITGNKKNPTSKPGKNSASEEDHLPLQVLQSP

[3] = Drug concentration in rat at 6.2 mg/kg, po measured after 60 mins; assay type: ADME, organism-based; settings: in vivo, read-out: Drug uptake
[4] = Effect on locomotory activity in Sprague-Dawley rat model of mustard oil-induced nocifensive response at 6.2 to 62.1 mg/kg, po administered for 1 hrs; assay type: toxicity, organism-based; settings: in vivo, dose 6.2-62.1 mg/kg
[5] = target: T2, Transient receptor potential cation channel subfamily V member 4 (Homo sapiens, UniProt Q9HBA0); experiment: Antagonist activity at human TRPV4 expressed in HEK293F cells assessed as inhibition of mOsmo-induced increase in intracellular Ca2+ level by FLIPR-based Ca2+ assay; assay type: cell-based
[6] = target: Transient receptor potential cation channel subfamily A member 1 (Rattus norvegicus) (UniProt Q6RI86); experiment: Antagonist activity at endogenous TRPA1 in rat DRG neurons assessed as blockade of capsaicin-induced CGRP release at 50 micromol/L; assay type: cell-based; settings: DRG neuron, dose 50.0 µmol/L
[7] = Toxicity in CD1 mouse assessed as effect on total forepaw shivering response at 5 degreeC at 62.1 mg/kg, po measured after 4 mins by noxious cold plate assay; assay type: organism-based; settings: in vivo
[8] = target: T3, Transient receptor potential cation channel subfamily V member 3 (Homo sapiens) (UniProt Q8NET8); experiment: Activation of endogenous TRPV3 in human epithelial cells upto 100 micromol/L; assay type: cell-based; settings: Epithelial cell, dose <= 100.0 µmol/L
T3 sequence (whole entry): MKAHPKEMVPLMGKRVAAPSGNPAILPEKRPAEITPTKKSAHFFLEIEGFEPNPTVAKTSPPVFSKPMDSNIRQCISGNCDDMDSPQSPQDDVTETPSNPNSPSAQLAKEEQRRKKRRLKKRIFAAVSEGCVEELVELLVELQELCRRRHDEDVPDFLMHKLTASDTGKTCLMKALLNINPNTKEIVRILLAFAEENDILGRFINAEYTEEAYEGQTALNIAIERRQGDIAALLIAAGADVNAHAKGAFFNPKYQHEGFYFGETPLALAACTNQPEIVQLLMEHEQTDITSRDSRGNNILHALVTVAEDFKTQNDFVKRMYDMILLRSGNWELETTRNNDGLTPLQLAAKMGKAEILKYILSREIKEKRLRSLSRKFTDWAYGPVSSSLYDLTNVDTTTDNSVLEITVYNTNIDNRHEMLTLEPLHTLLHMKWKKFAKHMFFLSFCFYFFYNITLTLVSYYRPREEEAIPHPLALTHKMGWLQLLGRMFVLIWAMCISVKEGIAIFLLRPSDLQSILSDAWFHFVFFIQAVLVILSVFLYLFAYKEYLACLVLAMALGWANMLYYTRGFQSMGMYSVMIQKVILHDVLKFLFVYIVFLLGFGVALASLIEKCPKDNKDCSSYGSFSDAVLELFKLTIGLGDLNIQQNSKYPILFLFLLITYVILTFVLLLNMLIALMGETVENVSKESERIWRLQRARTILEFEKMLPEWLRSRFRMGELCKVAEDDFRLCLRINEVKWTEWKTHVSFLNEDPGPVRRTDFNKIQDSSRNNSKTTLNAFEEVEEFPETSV

[9] = Half-life in rat at 2 mg/kg, po; assay type: ADME, organism-based; settings: in vivo
[10] = Cmax in rat at 2 mg/kg, po; assay type: ADME, organism-based; settings: in vivo
[11] = target: T2, Transient receptor potential cation channel subfamily V member 4; experiment: Activation of human TRPV4 expressed in HEK293F cells upto 100 micromol/L; assay type: cell-based; settings: dose <= 100.0 µmol/L
[12] = Tmax in rat at 2 mg/kg, po; assay type: ADME, organism-based; settings: in vivo
[13] = target: Sodium-dependent noradrenaline transporter (Homo sapiens) (UniProt P23975); experiment: Inhibition of norepinephrine transporter (unknown origin) at 10 micromol/L by radioligand binding assay; settings: dose 10.0 µmol/L
Rattus norvegicus [14] = experiment: Analgesic activity in AITC-induced nocifensive response Sprague-Dawley rat model assessed as prevention of mustard oil-induced flinching behavior administered orally for 1 hrs; assay type: functional, organism-based; settings: dose 6.2-62.1 mg/kg, route po
Rattus norvegicus [15] = experiment: Antiallodynic activity in CCI-induced neuropathic pain Sprague-Dawley rat model assessed as attenuation of mechanical allodynia at 6.2 to 62.1 mg/kg, po administered with compound for 1 hrs and measured 10 to 14 days after surgery; assay type: functional, organism-based; settings: dose 6.2-62.1 mg/kg, time 241-337 hrs
[16] = target: Transient receptor potential cation channel subfamily A member 1 (Mus musculus, UniProt Q8BLA8); experiment: Antagonist activity at mouse TRPA1 expressed in HEK293F cells assessed as reduction in AITC-induced increase in intracellular Ca2+ level by FLIPR-based Ca2+ assay; assay type: cell-based
Rattus norvegicus [17] = experiment: Antiallodynic activity in spinal nerve ligation-induced neuropathic pain Sprague-Dawley rat model assessed as attenuation of mechanical allodynia at 6.2 to 62.1 mg/kg, po administered with compound for 1 hrs and measured 10 to 14 days after surgery; assay type: functional, organism-based; settings: dose 6.2-62.1 mg/kg, time 241-337 hrs
[18] = target: Transient receptor potential cation channel subfamily A member 1 (Rattus norvegicus) (UniProt Q6RI86); experiment: Antagonist activity at endogenous TRPA1 in rat DRG neurons assessed as blockade of AITC-induced Ca2+ signals at 1 micromol/L by […] Ca2+ imaging analysis; assay type: cell-based; settings: DRG neuron, filed as antagonist, dose 1.0 µmol/L

T2 sequence (Q9HBA0 whole entry): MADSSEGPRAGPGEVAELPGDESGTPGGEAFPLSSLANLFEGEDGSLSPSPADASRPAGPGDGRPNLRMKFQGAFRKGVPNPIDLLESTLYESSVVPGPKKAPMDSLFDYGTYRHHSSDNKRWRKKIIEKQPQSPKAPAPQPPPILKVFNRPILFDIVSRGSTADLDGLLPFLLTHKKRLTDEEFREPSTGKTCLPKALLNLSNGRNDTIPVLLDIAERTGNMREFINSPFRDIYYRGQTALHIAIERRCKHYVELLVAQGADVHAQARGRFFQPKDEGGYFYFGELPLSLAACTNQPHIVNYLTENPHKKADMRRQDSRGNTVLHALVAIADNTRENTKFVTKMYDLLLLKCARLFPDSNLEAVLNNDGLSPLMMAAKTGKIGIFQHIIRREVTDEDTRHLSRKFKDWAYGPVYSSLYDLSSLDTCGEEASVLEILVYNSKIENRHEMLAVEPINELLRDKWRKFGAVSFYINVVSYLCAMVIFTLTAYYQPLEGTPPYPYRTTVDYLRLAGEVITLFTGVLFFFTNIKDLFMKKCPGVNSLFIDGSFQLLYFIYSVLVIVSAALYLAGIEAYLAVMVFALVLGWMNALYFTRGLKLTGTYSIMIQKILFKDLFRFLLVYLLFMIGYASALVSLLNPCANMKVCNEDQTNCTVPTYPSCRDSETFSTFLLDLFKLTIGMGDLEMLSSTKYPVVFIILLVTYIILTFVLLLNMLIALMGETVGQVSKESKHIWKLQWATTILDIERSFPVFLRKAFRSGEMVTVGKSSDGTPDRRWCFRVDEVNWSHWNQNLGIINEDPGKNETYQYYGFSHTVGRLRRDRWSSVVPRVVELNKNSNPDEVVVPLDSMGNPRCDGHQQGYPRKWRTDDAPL
Transient receptor potential cation channel subfamily A member 1 (Rattus norvegicus), sequence (Q6RI86 whole entry): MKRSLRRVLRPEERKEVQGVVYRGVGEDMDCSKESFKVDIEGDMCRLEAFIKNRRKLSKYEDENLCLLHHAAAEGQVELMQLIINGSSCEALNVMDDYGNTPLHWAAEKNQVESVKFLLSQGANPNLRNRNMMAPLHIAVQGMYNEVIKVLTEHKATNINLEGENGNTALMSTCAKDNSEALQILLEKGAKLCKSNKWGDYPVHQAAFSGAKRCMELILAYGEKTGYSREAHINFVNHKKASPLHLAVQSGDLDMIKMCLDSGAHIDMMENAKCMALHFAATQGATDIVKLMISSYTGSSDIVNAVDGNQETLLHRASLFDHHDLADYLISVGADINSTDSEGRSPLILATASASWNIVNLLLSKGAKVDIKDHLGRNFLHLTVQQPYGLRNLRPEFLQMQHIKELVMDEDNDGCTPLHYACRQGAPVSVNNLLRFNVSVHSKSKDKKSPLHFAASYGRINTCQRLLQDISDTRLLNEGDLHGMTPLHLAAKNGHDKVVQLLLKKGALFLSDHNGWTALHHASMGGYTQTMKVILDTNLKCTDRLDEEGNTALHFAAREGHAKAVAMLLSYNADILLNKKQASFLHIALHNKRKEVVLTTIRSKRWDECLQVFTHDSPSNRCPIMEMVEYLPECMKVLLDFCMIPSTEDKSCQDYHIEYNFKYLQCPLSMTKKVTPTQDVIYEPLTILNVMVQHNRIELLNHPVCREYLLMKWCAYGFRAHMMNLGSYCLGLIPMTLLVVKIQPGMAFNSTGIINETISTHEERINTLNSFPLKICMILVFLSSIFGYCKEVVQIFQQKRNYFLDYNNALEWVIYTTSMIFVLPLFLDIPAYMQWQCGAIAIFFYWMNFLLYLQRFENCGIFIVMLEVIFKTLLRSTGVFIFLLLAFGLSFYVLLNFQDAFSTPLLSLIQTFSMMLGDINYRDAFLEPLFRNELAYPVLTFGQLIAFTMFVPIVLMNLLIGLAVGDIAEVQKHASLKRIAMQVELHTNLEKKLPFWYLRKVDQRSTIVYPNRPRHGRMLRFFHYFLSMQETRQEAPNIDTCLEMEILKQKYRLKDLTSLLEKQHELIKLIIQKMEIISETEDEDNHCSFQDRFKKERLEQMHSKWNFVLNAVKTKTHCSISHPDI
Transient receptor potential cation channel subfamily M member 8, sequence (Q7Z2W7 whole entry, looked up): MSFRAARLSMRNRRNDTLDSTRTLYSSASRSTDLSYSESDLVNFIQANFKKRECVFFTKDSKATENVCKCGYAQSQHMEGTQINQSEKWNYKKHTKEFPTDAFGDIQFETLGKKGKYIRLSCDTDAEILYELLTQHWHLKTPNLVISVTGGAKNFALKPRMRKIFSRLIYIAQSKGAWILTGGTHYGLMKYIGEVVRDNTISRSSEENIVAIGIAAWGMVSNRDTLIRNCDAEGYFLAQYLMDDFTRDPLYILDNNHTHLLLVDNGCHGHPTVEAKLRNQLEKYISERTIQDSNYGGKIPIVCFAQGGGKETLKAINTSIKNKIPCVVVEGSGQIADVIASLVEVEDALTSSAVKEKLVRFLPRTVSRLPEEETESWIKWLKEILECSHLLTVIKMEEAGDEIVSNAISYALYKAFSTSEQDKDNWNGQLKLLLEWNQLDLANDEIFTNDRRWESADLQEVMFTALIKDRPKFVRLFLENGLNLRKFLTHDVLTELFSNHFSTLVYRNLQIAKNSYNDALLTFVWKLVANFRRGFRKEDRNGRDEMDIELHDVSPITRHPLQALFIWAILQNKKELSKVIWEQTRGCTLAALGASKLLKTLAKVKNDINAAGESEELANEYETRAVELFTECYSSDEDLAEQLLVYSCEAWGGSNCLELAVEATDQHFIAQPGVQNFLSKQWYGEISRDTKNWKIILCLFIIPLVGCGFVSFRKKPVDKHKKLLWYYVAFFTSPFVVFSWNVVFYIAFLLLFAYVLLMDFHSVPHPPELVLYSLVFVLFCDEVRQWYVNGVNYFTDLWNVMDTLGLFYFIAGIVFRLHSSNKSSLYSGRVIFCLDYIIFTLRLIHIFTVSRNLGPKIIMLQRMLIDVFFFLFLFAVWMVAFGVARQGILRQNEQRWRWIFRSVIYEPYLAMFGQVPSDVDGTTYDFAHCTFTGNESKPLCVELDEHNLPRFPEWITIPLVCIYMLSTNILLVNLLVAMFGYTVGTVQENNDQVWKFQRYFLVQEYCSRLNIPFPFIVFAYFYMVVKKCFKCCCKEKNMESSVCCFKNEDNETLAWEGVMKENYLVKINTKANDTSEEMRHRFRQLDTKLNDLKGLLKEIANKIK
Sodium-dependent noradrenaline transporter (Homo sapiens), sequence (P23975 whole entry): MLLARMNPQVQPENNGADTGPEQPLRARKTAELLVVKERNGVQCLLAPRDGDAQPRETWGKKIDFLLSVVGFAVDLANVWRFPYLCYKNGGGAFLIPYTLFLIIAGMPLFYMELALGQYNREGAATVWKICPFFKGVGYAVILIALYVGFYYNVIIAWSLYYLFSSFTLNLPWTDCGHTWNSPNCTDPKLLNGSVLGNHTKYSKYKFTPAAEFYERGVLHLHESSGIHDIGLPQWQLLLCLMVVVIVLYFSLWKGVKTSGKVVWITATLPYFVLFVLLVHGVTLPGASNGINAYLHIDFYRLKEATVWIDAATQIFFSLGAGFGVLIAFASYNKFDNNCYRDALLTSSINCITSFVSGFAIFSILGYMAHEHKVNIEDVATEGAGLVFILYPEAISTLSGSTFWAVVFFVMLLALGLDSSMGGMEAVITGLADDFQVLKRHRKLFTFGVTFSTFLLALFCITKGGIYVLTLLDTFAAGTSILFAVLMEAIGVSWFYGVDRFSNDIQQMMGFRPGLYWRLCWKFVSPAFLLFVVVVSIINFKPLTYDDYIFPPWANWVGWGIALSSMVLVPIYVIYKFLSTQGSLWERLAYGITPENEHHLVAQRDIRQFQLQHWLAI
Transient receptor potential cation channel subfamily A member 1, sequence (Q8BLA8 whole entry): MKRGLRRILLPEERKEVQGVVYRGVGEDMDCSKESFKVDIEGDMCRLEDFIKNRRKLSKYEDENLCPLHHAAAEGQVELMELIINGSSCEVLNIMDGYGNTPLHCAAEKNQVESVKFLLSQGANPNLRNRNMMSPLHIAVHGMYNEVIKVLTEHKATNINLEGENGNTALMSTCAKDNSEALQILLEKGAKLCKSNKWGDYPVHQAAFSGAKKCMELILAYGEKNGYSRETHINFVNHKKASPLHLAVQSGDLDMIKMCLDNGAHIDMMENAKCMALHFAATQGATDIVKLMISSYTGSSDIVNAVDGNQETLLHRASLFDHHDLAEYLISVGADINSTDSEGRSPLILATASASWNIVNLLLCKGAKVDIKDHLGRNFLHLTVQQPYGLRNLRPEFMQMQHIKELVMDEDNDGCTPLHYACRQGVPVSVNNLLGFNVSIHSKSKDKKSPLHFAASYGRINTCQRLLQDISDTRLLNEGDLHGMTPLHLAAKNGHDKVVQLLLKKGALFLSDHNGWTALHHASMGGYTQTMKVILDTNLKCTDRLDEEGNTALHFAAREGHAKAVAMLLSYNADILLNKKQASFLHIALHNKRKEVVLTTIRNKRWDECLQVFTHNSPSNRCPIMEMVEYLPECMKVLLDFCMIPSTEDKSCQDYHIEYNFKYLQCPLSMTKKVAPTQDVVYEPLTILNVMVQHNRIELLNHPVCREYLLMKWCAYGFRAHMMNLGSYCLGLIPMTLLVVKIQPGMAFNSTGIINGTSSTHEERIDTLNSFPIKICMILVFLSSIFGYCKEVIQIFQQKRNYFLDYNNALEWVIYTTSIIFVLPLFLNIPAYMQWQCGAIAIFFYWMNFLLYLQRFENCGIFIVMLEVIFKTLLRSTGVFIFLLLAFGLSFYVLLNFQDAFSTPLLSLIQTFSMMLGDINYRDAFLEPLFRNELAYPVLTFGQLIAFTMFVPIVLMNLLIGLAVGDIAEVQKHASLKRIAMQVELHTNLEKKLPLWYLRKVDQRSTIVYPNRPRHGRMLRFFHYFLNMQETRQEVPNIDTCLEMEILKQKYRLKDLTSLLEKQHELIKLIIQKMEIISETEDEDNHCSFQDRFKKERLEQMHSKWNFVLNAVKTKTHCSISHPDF

CCC(=N\O)/C(C)=C/c1ccc(F)cc1 [A-079]
inhibition [1]: < 20%
IC50 [2]: > 100 µM
concentration at 1 h [3]: 1540 nM
Activity [4]: Non-Toxic
IC50 [5]: > 100 µM
Activity [6]: inactive
Activity [7]: Non-Toxic
Activity [8]: inactive
half-life [9]: 48.6 min
Cmax [10]: 720 nM
Activity [11]: inactive
Tmax [12]: 30 min
inhibition [13]: 32%
Activity (Rattus norvegicus [14]): Dose-Dependent Effect
Activity (Rattus norvegicus [15]): inactive
IC50 [16]: 0.296 µM
Activity (Rattus norvegicus [17]): inactive
Activity [18]: Active
